Values joined by “and” are separate entries in the source; they are usually repeats but may differ in a detail not shown here. Equal entries are not always repeated.

In assay [1] the target is T1, Human KIF18A (amino acid sequence 1-417) (Homo sapiens, UniProt Q8NI77).
T1 construct: purchased Viva Biotech (Shanghai) Ltd
T1 sequence (Q8NI77 1-417): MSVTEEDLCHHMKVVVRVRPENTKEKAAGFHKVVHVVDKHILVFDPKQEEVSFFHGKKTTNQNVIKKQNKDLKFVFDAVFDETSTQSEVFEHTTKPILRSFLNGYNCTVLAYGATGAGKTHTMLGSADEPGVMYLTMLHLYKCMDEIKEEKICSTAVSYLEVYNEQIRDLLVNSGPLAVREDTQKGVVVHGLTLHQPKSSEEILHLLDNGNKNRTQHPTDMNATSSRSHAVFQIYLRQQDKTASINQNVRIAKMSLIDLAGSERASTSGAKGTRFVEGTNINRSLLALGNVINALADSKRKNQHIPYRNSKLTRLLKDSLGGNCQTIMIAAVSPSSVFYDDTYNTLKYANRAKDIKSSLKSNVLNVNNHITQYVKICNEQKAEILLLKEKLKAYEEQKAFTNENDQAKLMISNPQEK
Nature of the assay: Enzymatic activity test (ADP-Glo, microtubule-stimulated ATPase). The format is biochemical. To be noted: 60 µg/mL microtubules, 25 µM ATP, 2.5 nM KIF18A protein, 120 min at ambient temperature, chemiluminescence; read-out: KIF18A IC50. As to the method: Materials: Human KIF18A (amino acid sequence 1-417) was purchased from Viva Biotech (Shanghai) Ltd.; the ADP-Glo™ protein kinase kit was acquired from Promega, USA; tubulin was sourced from Cytoskeleton, USA; and the 384-well assay plate and Envision multifunctional microplate reader were obtained from PerkinElmer, USA.
Enzymatic Activity Test: The compound powder was dissolved in DMSO to prepare a stock solution of 10 mM. Then gradient dilution was performed for the compounds in the microplate to achieve a final concentration of 0-10 µM. Then, 2.5 µL each of tubulin, compound, ATP, and KIF18A protein were added to the microplate in sequence for reaction at ambient temperature for 120 min. The final concentrations in the enzyme reaction were 60 µg/mL for microtubules, 25 µM for ATP, and 2.5 nM for KIF18A protein. After the enzyme reaction, 10 µL of ADP-GLO reaction reagent was added to each well and incubated at room temperature for 30 min. After that, 20 µL of detection reagent was added to each well and incubated at room temperature for 30 min in the dark. Finally, chemiluminescence detection was performed using the PerkinElmer Envision.
(In general: In ADP-Glo the light output rises with the ADP produced.)

Assay [2] concerns OVCAR3 cells. Nature of the assay: Cell proliferation activity test (CyQUANT Direct). The conditions noted are these: 3 days, 0.2% DMSO, CyQUANT fluorescence. It counts as cell-based. How it is done: Materials and Cells: OVCAR3 cells were purchased from Nanjing Cobioer Biosciences Co., Ltd. RPMI-1640 medium, fetal bovine serum, and the CyQUANT Direct Cell Proliferation Assay kit were purchased from Thermo Fisher Scientific, USA; 96-well cell culture plates were sourced from Corning, USA.
Cell Culture: OVCAR3 cells were cultured with RPMI-1640 medium containing 10% fetal bovine serum and incubated in a 5% CO2 incubator at 37°C. Only cells in the logarithmic growth phase could be used for the test.
OVCAR3 cells were inoculated into a 96-well cell culture plate at 90 µL per well and incubated overnight in a 5% CO2 incubator at 37°C. The compound powder was dissolved in DMSO to prepare a stock solution of 10 mM. Then gradient dilution was performed for the compounds in the microplate to achieve a final concentration of 0-10 µM. 10 µL of cell culture medium containing compounds was added to each well to make the final DMSO content 0.2%. The cell plates were incubated in a 5% CO2 incubator at 37°C for 3 days. 100 µL of CyQUANT detection reagent was added to each well, reacted at 37°C for 60 min, and fluorescence detection was performed using the PerkinElmer Envision.

As a reminder, the IC50 is the concentration needed to halve the response being measured. Take “2-Hydroxy-N-(8-methyl-2^1,3-dione-2^2,2^3-dihydro-2^1H-4,6-diaza-5(2,6)-pyridin-1(1,4)-piperidin-2(5,4)-indenoundecan e-9-en-2^7-yl)ethane-1-sulfonamide [Example 38]”: in assay [1], the IC50 is 113 nM. With `Cc1cc2nc(n1)N1CCC(F)(F)C(/C=C/CCC3CCN(CC3)c3cc(NS(=O)(=O)CCO)ccc3-n3cc-2nn3)C1` (racemic) [Example 86, N-((3^4,8)-1^4,1^4-difluoro-2^6-methyl-3^1H-2(2,4)-pyrimidin-1(1,3),5(1,4)-dipiperidin-3(4,1)-triazole-4(1,2)-benzoazacyclononane-8-en-44-yl)-2-hydroxyethane-1-sulfonamide], the IC50 in assay [1] is 352 nM; in assay [2] (Homo sapiens, OVCAR-3, 72 h), 63 nM. For the compound `Cc1cc2nc(n1)N1CCC(F)(F)C(/C=C\CC3CCN(CC3)c3cc(NS(=O)(=O)CCO)ccc3-c3cn-2nn3)C1` (single isomer, unassigned) [Example 84A, N-((3^4Z,7Z)-1^4,1^4-difluoro-2^6-methyl-3^1H-2(2,4)-pyrimidin-1(1,3),5(1,4)-dipiperidin-3(1,4)-triazole-4(1,2)-benzocyclooct-7-en-4^4-yl)-2-hydroxyethane-1-sulfonamide], the IC50 in assay [1] is 309 nM; in assay [2], 26 nM.

On to `Cc1cc2nc(n1)N1CCC(F)(F)C(/C=C\c3ccc(cc3)-c3cc(NS(=O)(=O)CCO)ccc3C(=O)N2)C1` (centres unmarked) [Example 43, N-(2^4,2^4-difluoro-1^6-methyl-7-oxo-8-aza-1(2,4)-pyrimidin-2(1,3)-piperidin-5(1,4),6(1,2)-diphenylcyclooct-3-en-6^5-yl)-2-hydroxyethane-1-sulfonamide], for which the IC50 in assay [2] (Homo sapiens, OVCAR-3, 72 h) turned out to be 2580 nM. For `Cc1cc2nc(n1)N1CCC(F)(F)C(/C=C/CC3CC4(C3)CN(C4)c3cc(NS(=O)(=O)CCO)ccc3C(=O)N2)C1` (centres unmarked) [Example 47, N-(6^4,6^4-difluoro-5^1-methyl-3-oxo-4-aza-5(4,2)-pyrimidin-6(1,3)-piperidin-1(1,3)-azetidin-2(1,2)-benzene-10(1,3)-cyclobutyramide-7-en-2^5-yl)-2-hydroxyethane-1-sulfonamide], the IC50 in assay [1] is 566 nM and 625 nM. On the same count and under the same terms, in the case of `COc1cc2nc(n1)N1CCC(F)(F)C(CCCc3c(F)cc(cc3F)-c3cc(NS(=O)(=O)CCO)ccc3C(=O)N2)C1` (centres unmarked) [Example 59, 2-hydroxy-N-(1^4,1^4,6^3,6^5-tetrafluoro-2^6-methoxy-4-oxo-3-aza-2(2,4)-pyrimidin-1(1,3)-piperidin-5(1,2),6(1,4)-diphenylheterocyclononane-54-yl)ethane-1-sulfonamide] it was 223 nM; in that of `COc1cc2nc(n1)N1CCC(F)(F)C(/C=C\C3=CC=C(S3)c3cc(NS(=O)(=O)CCO)ccc3C(=O)N2)C1` (centres unmarked) [Example 60, N-(2^4,2^4-difluoro-1^1-methoxy-7-oxo-8-aza-1(2,4)-pyrimidin-2(1,3)-piperidin-5(2,5)-thiophene-6(1,2)-benzenecyclooctane-3-en-6^5-yl)-2-hydroxyethane-1-sulfonamide], 40 nM; in that of `COc1cc2nc(n1)N1CCC(F)(F)C(CCC3=CC=C(S3)c3cc(NS(=O)(=O)CCO)ccc3C(=O)N2)C1` (centres unmarked) [Example 61, N-(2^4,2^4-difluoro-1^6-methoxy-7-oxo-8-aza-1(2,4)-pyrimidin-2(1,3)-piperidin-5(2,5)-thiophene-6(1,2)-benzeneheterocyclooctan-6^3-yl)-2-hydroxyethane-1-sulfonamide], 60 nM. Regarding `Cc1cc2nc(n1)N1CCC(F)(F)C(/C=C\C3=CC=C(S3)c3cc(NS(=O)(=O)CCO)ccc3C(=O)N2)C1` (centres unmarked) [Example 62, N-(2^4,2^4-difluoro-1^6-methyl-7-oxo-8-aza-1(2,4)-pyrimidin-2(1,3)-piperidin-5(2,5)-thiophene-6(1,2)-benzeneheterocyclooct-3-en-6^5-yl)-2-hydroxyethane-1-sulfonamide], the IC50 in assay [1] was determined as 35 nM. For `Cc1cc2nc(n1)N1CCC(F)(F)C(CCC3=CC=C(S3)c3cc(NS(=O)(=O)CCO)ccc3C(=O)N2)C1` (centres unmarked) [Example 63, N-(2^4,2^4-difluoro-1^6-methyl-7-oxo-8-aza-1(2,4)-pyrimidin-2(1,3)-piperidin-5(2,5)-thiophene-6(1,2)-benzeneheterocyclooctan-6^5-yl)-2-hydroxyethane-1-sulfonamide], the IC50 in assay [1] was determined as 126 nM. For the compound `COc1cc2nc(n1)N1CCC(F)(F)C(/C=C\CC3=CC=C(S3)c3cc(NS(=O)(=O)CCO)ccc3C(=O)N2)C1` (centres unmarked) [Example 64, N-(1^4,1^4-difluoro-2^6-methoxy-4-oxo-3-aza-2(2,4)-pyrimidin-1(1,3)-piperidin-6(2,5)-thiophene-5(1,2)-benzoazacyclon-8-en-5^4-yl)-2-hydroxyethane-1-sulfonamide], in assay [1], the IC50 was determined as 97 nM. On the same count and under the same terms, in the case of `COc1cc2nc(n1)N1CCC(F)(F)C(CCCC3=CC=C(S3)c3cc(NS(=O)(=O)CCO)ccc3C(=O)N2)C1` (centres unmarked) [Example 65, N-(1^4,1^4-difluoro-2^6-methoxy-4-oxo-3-aza-2(2,4)-pyrimidin-1(1,3)-piperidin-6(2,5)-thiophene-5(1,2)-benzoazacyclononane-5^4-yl)-2-hydroxyethane-1-sulfonamide] it was 135 nM. On the same count and under the same terms, under `Cc1cc2nc(n1)N1CCC(F)(F)C(C=CCc3csc(c3)-c3cc(NS(=O)(=O)CCO)ccc3C(=O)N2)C1` (centres unmarked) [Example 66, N-(1^4,1^4-difluoro-2^6-methyl-4-oxo-3-aza-2(2,4)-pyrimidin-1(1,3)-piperidin-6(2,4)-thiophene-5(1,2)-benzoazacyclon-8-en-5^4-yl)-2-hydroxyethane-1-sulfonamide] stands 43 nM; under `Cc1cc2nc(n1)N1CCC(F)(F)C(CCCc3csc(c3)-c3cc(NS(=O)(=O)CCO)ccc3C(=O)N2)C1` (centres unmarked) [Example 68, N-(1^4,1^4-difluoro-2^6-methyl-4-oxo-3-aza-2(2,4)-pyrimidin-1(1,3)-piperidin-6(2,4)-thiophene-5(1,2)-benzoazacyclononane-5^4-yl)-2-hydroxyethane-1-sulfonamide], 155 nM; under `Cc1cc2nc(n1)N1CCC(F)(F)C(CCc3csc(c3)-c3cc(NS(=O)(=O)CCO)ccc3C(=O)N2)C1` (centres unmarked) [Example 69, N-(2^4,2^4-difluoro-1^6-methyl-7-oxo-8-aza-1(2,4)-pyrimidin-2(1,3)-piperidin-5(2,4)-thiophene-6(1,2)-benzeneheterocyclooctan-6^5-yl)-2-hydroxyethane-1-sulfonamide], 45 nM.

Consider `Cc1cc2nc(n1)NCC(C)C=CC1=CC=C(S1)c1cc(NS(=O)(=O)CCO)ccc1C(=O)N2` (centres unmarked) [Example 70, N-(5^6,8-dimethyl-3-oxo-4,6-diaza-5(4,2)-pyrimidin-1(2,5)-thiophene-2(1,2)-benzenecyclodec-9-en-25-yl)-2-hydroxyeth ane-1-sulfonamide], for which, in assay [1], the IC50 worked out at 251 nM.

As to `Cc1cc2nc(n1)N1CCC(F)(F)C(C=CCC3CCN(CC3)c3cc(NS(=O)(=O)CCO)ccc3-n3cc-2nn3)C1` (centres unmarked) [Example 81, N-((3^4,7)-1^4,1^4-difluoro-2^6-methyl-3^1H-2(2,4)-pyrimidin-1(1,3),5(1,4)-dipiperidin-3(4,1)-triazole-4(1,2)-benzocyclooct-7-en-44-yl)-2-hydroxyethane-1-sulfonamide], the half-inhibitory concentration (IC50) in assay [2] (Homo sapiens, OVCAR-3, 72 h) turned out to be 34 nM. For the compound `Cc1cc2nc(n1)N1CCC(F)=C(/C=C/CC3CCN(CC3)c3cc(NS(=O)(=O)CCO)ccc3-n3cc-2nn3)C1` [Example 83, N-((3^4Z,7E)-1^4-fluoro-2^6-methyl-1^1,1^2,1^3,16-tetrahydro-3^1H-2(2,4)-pyrimidin-1(1,5)-pyridin-5(1,4)-piperidin-3(4,1)-triazole-4(1,2)-benzylcyclooct-7-en-4^4-yl)-2-hydroxyethane-1-sulfonamide], in assay [2] (Homo sapiens, OVCAR-3, 72 h), the IC50 amounted to 100 nM.

The values are drawn from patent EP4772509A1, “KINESIN KIF18A INHIBITOR, AND APPLICATION THEREOF” (Shanghai Apeiron Therapeutics Company Limited, priority 2023, dated 2025).
